ChEMBL document CHEMBL1155358, “Unsaturated genistein disaccharide glycoside as a novel agent affecting microtubules” (2009)
The source made the active and inactive calls. No cut-off for these calls is given here.

Columns and labels:
[1] = system: DU-145; assay: Induction of apoptosis in human DU145 cells at interphase assessed as curly appearance of microtubules at 1 nM after 24 hrs by beta tubulin immunofluorescent staining; format: functional, cell-based
[2] = system: DU-145; assay: Cell cycle arrest in human DU145 cells assessed as accumulation between G1 phase and G2M phase at 100 uM after 24 hrs by flow cytometry using propidium iodide staining; format: functional
[3] = system: DU-145; assay: Cell cycle arrest in human DU145 cells assessed as accumulation at G1 phase at 100 uM after 24 hrs by flow cytometry using propidium iodide staining; format: functional
[4] = system: DU-145; assay: Cell cycle arrest in human DU145 cells assessed as accumulation at G2M phase at 50 uM after 24 hrs by flow cytometry using propidium iodide staining; format: functional
[5] = system: DU-145; assay: Cell cycle arrest in human DU145 cells assessed as accumulation at >G1 phase at 100 uM after 24 hrs by flow cytometry using propidium iodide staining; format: functional
[6] = system: DU-145; assay: Cell cycle arrest in human DU145 cells assessed as accumulation at G2M phase at 100 uM after 24 hrs by flow cytometry using propidium iodide staining; format: functional
[7] = system: DU-145; assay: Induction of apoptosis in human DU145 cells at interphase assessed as alteration in microtubule array at 100 uM after 24 hrs by beta tubulin immunofluorescent staining; format: functional, cell-based
[8] = system: DU-145; assay: Cell cycle arrest in human DU145 cells assessed as accumulation at < G2M phase at 100 uM after 24 hrs by flow cytometry using propidium iodide staining; format: functional
[9] = system: DU-145; assay: Cell cycle arrest in human DU145 cells assessed as accumulation between G1 phase and G2M phase at 50 uM after 24 hrs by flow cytometry using propidium iodide staining; format: functional
[10] = system: DU-145; assay: Cell cycle arrest in human DU145 cells assessed as accumulation at < G2M phase at 50 uM after 24 hrs by flow cytometry using propidium iodide staining; format: functional
[11] = system: DU-145; assay: Cell cycle arrest in human DU145 cells assessed as accumulation at G1 phase at 50 uM after 24 hrs by flow cytometry using propidium iodide staining; format: functional
[12] = system: DU-145; assay: Cell cycle arrest in human DU145 cells assessed as accumulation at >G1 phase at 50 uM after 24 hrs by flow cytometry using propidium iodide staining; format: functional
[13] = system: DU-145; assay: Cell cycle arrest in human DU145 cells assessed as accumulation between G1 phase and G2M phase at 10 uM after 24 hrs by flow cytometry using propidium iodide staining; format: functional
[14] = system: DU-145; assay: Cell cycle arrest in human DU145 cells assessed as accumulation at G2M phase relative to control; format: functional
[15] = system: DU-145; assay: Cell cycle arrest in human DU145 cells assessed as accumulation at G1 phase at 5 uM after 24 hrs by flow cytometry using propidium iodide staining; format: functional
[16] = system: DU-145; assay: Cell cycle arrest in human DU145 cells assessed as accumulation at G2M phase at 5 uM after 24 hrs by flow cytometry using propidium iodide staining; format: functional
[17] = system: DU-145; assay: Cell cycle arrest in human DU145 cells assessed as accumulation between G1 phase and G2M phase at 5 uM after 24 hrs by flow cytometry using propidium iodide staining; format: functional
[18] = system: DU-145; assay: Induction of apoptosis in human DU145 cells at interphase assessed as complete disappearance of microtubules at 25 uM after 24 hrs by beta tubulin immunofluorescent staining; format: functional, cell-based
[19] = system: DU-145; assay: Cell cycle arrest in human DU145 cells assessed as accumulation at < G2M phase at 5 uM after 24 hrs by flow cytometry using propidium iodide staining; format: functional
[20] = system: DU-145; assay: Cell cycle arrest in human DU145 cells assessed as accumulation at >G1 phase at 10 uM after 24 hrs by flow cytometry using propidium iodide staining; format: functional
[21] = system: DU-145; assay: Induction of apoptosis in human DU145 cells at interphase assessed as loosened of microtubule network at 5 uM after 24 hrs by beta tubulin immunofluorescent staining; format: functional, cell-based
[22] = system: DU-145; assay: Cell cycle arrest in human DU145 cells assessed as accumulation at G2M phase at 10 uM after 24 hrs by flow cytometry using propidium iodide staining; format: functional
[23] = system: DU-145; assay: Cell cycle arrest in human DU145 cells assessed as accumulation at < G2M phase at 10 uM after 24 hrs by flow cytometry using propidium iodide staining; format: functional
[24] = system: DU-145; assay: Cell cycle arrest in human DU145 cells assessed as accumulation at G1 phase at 10 uM after 24 hrs by flow cytometry using propidium iodide staining; format: functional
[25] = system: DU-145; assay: Cell cycle arrest in human DU145 cells assessed as accumulation at >G1 phase at 5 uM after 24 hrs by flow cytometry using propidium iodide staining; format: functional
[26] = system: DU-145; assay: Induction of apoptosis in human DU145 cells at interphase assessed as dencer microtubue network at 2 nM after 24 hrs by beta tubulin immunofluorescent staining; format: functional, cell-based

CC[C@]1(O)C[C@@H]2CN(CCc3c([nH]c4ccccc34)[C@@](C(=O)OC)(c3cc4c(cc3OC)N(C)[C@H]3[C@@](O)(C(=O)OC)[C@H](OC(C)=O)[C@]5(CC)C=CCN6CC[C@]43[C@@H]65)C2)C1
Activity [1]: Active

O=c1c(-c2ccc(O)cc2)coc2cc(O)cc(O)c12 [GENISTEIN]
Activity [2]: 20.8%
Activity [3]: 44.3%
Activity [4]: 17.1%
Activity [5]: 6.1%
Activity [6]: 27.2%
Activity [7]: inactive
Activity [8]: 1.6%
Activity [9]: 19.2%
Activity [10]: 2.8%
Activity [11]: 55.9%
Activity [12]: 5.1%

CC(=O)OC[C@H]1O[C@@H](O[C@H]2C=C[C@@H](Oc3cc(O)c4c(=O)c(-c5ccc(O)cc5)coc4c3)O[C@@H]2COC(C)=O)[C@H](OC(C)=O)[C@@H](OC(C)=O)[C@H]1OC(C)=O
Activity [13]: 11.4%
Activity [14]: 30%
Activity [15]: 26.5%
Activity [16]: 54.5%
Activity [17]: 10.1%
Activity [18]: Active
Activity [19]: 1.4%
Activity [20]: 5.7%
Activity [21]: Active
Activity [22]: 57.8%
Activity [23]: 1.7%
Activity [24]: 23.4%
Activity [25]: 7.5%

CC(=O)O[C@H]1C(=O)[C@@]2(C)[C@H]([C@H](OC(=O)c3ccccc3)[C@]3(O)C[C@H](OC(=O)[C@H](O)[C@@H](NC(=O)c4ccccc4)c4ccccc4)C(C)=C1C3(C)C)[C@]1(OC(C)=O)CO[C@@H]1C[C@@H]2O
Activity [26]: Active
